Columns and labels:
[1] = system: plasma aldosterone levels; assay: Suppression of plasma aldosterone in ACTH-stimulated rats; type: in vivo, Wistar rats; conditions: 4 mg/kg p.o.; plasma level 2 h after dosing relative to 1 h prior to dosing; rat
Method: (§1) The aldosterone- and corticosterone-suppressing activity of herein described compounds may be assessed with the following in vivo protocol.
(§2) Adult male Wistar rats weighing between 250 and 350 grams are kept under the usual 12-hour light and 12-hour dark conditions at a temperature of 23° C.±2° C. On the first day of the experiment, the animals receive a subcutaneous injection of a depot ACTH product in a dose of 1.0 mg/kg weight (SYNACTHEN-Depot, Novartis, Basel, CH) 16 hours prior to the administration of a test compound. […] An alternative method to stimulate aldosterone secretion consists in subjecting rats to a low salt diet for 48 hours and applying the diuretic furosemide at 10 mg/kg by subcutaneous or intraperitoneal administration 16 hours, respectively 2 hours prior to the start of the experiment. On the second day of the experiment, the animals are divided into test groups of 5 animals and subjected to a first bleed 1 hour prior to the administration of test compound. Subsequently, and 16 hours after the injection of the ACTH product, the animals receive either vehicle or test compound dissolved in vehicle in a variable dose range from 0.02 to 20 mg/kg by oral gavage. The animals are bled two more times from the vena subclavia under isoflurane anaesthesia 2 and 6 hours after dosing. The blood is collected in heparin-treated tubes. The plasma samples are obtained by centrifugation and stored at −20° C. An alternative method to bleed animals time-dependently consists in using animals that are chronically carotid catheterized which allows the periodical sampling of up to 0.2 ml of blood using an AccuSampler (DiLab Europe, Lund, Sweden). The blood sampling with the AccuSampler may occur 1 hour prior to the administration of a test compound and 2, 4, 6, 8, 12, 16 and 24 hours thereafter. The blood samples are anticoagulated with heparin and centrifuged. The aldosterone and corticosterone concentrations of the plasma samples can be determined with a radioimmunoassay as described above for the in vitro test systems.
(§3) The selective suppression of plasma steroid levels as for instance aldosterone in comparison to corticosterone may serve as a measure for in vivo bioavailability and pharmacodynamic enzyme inhibitory activity of the herein described compounds. The evaluation of the data may occur relative to the application of vehicle or quantitatively by determination of the area under the curve (AUC).

[2] = system: plasma corticosterone levels; assay: Suppression of plasma corticosterone in ACTH-stimulated rats; type: in vivo, Wistar rats; conditions: 4 mg/kg p.o.; plasma level 2 h after dosing relative to 1 h prior to dosing; rat
Method: as §1, §2, §3

[3] = target: T1, recombinant human Cyp19 enzyme (Homo sapiens, UniProt P11511); assay: Cyp19/MFC high throughput enzyme inhibition kit (aromatase); type: biochemical
T1 construct: purchased Becton Dickinson Biosciences, San Jose, Calif., USA
T1 sequence (P11511 1-503): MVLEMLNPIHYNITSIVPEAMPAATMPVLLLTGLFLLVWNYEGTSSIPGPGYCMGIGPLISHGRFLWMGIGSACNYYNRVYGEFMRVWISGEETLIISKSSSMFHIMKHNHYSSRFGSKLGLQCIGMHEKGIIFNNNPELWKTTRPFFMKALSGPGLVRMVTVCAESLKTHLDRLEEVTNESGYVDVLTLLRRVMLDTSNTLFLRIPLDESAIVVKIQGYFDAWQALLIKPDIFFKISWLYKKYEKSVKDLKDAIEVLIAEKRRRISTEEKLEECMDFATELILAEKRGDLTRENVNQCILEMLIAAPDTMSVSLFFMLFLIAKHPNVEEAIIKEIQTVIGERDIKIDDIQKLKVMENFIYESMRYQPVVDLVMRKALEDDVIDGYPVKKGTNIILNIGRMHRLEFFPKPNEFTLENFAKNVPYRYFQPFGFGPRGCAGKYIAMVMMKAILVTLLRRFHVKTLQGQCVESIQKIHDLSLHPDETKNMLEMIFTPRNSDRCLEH
Method: The compounds of the formula (Ia) have at least one asymmetric carbon atom, which is labelled “*”. A compound of the formula (Ia) is to be understood as a compound having a specific configuration around the designated asymmetric carbon atom. If a synthesis method is used which leads to racemic compounds, the racemate resolution is carried out in accordance with conventional methods, such as via a chiral HPLC column. […] The aforementioned aromatase inhibitory activity can, as the skilled worker is well aware and as described below, be comfortably determined using the commercial Cyp19 enzyme inhibition kit, preferably the Cyp19/methoxy-4-trifluoromethyl-coumarin (MFC) high throughput inhibition kit (Becton Dickinson Biosciences, San Jose, Calif., USA) as described hereafter. In the abovementioned inhibition kit, compounds of the formula (Ia) have an activity which is at least 10 times lower preferably 20 times lower, but more preferably 40 times lower than the compounds of the formula (Ia) with the opposite configuration around the asymmetric carbon atom labelled “*”. A lower inhibiting activity corresponds to a higher IC50 value.
The Cyp19/methoxy-4-trifluoromethyl-coumarin (MFC) high throughput inhibition kit (Becton Dickinson Biosciences, San Jose, Calif., USA), for example, is designed to screen for potential inhibitors of Cyp19 catalytic activity in a 96-well format. […]

Row | Structure (SMILES) | Aldosterone levels (% change at 2 h) [1] | Corticosterone levels (% change at 2 h) [2] | IC50 [3]
1 | CC(=O)c1ccc(C2OCCn3cncc32)cc1 (stereo not drawn) [Example 18, 1-[4-(5,6-Dihydro-8H-imidazo[5,1-c][1,4]oxazin-8-yl)phenyl]ethanone] | −33% | 4% | –
2 | N#Cc1ccc(C2SCCn3cncc32)cc1 (stereo not drawn) [Example 2, 4-(5,6-Dihydro-8H-imidazo[5,1-c][1,4]thiazin-8-yl)benzonitrile] | −56% | −22% | –
3 | CC1(c2ccc(C#N)cc2)SCCn2cncc21 (stereo not drawn) [Example 4, 4-(8-Methyl-5,6-dihydro-8H-imidazo[5,1-c][1,4]thiazin-8-yl)-benzonitrile] | −19% | −10% | –
4 | N#Cc1ccc(C2OCCn3cncc32)cc1 (racemic) [antipode of 24, 4-(5,6-Dihydro-8H-imidazo[5,1-c][1,4]oxazin-8-yl)benzonitrile] | – | – | 7.1 nM
5 | N#Cc1cccc(C2OCCn3cncc32)c1 (stereo not drawn) [Example 19, 3-(5,6-Dihydro-8H-imidazo[5,1-c][1,4]oxazin-8-yl)benzonitrile] | −65% | 1.7% | –

Reference: patent US8076327B2, “Condensed imidazole derivatives as aldosterone synthase inhibitors” (Novartis AG, priority 2006, dated 2011)
